Source: patent US20190328752A1, “COMPOUNDS FOR THE TREATMENT OF NIEMANN-PICK DISEASE TYPE C1” (UNIVERSITEIT MAASTRICHT, priority 2016, published 2019)
Where two headings read alike, the source gives them in different places.

Experiments:
NPC1mut BMDMs [1] = assay: TNFα secretion (ELISA) by oxLDL/LPS-stimulated BMDMs, mutant; assay type: cell-based, mice; conditions: 0.6 μM sitostanol 4 hours after oxLDL, then LPS; vs carrier control; p=0.000; FIG. 1A
Method: (§1) Bone-marrow derived cells (BMDCs) were isolated from tibea and femurs of NPC1 wild type (WT) and mutant mice on a C57BL/6 background. BMDCs were cultured for 8-9 days in RPMI-1640 (GIBCO Invitrogen, Breda, The Netherlands) with 10% heat-inactivated fetal calf serum (Bodinco B. V. Alkmaar, The Netherlands), penicillin (100 U/ml), streptomycin (100 μg/ml) and L-glutamine (2 mM) (all GIBCO invitrogen, Breda, The Netherlands) enriched with 20% L929-conditioned medium (LCM) to generate bone marrow-derived macrophages (BMDMs). After attachment, the BMDMs were seeded at 350,000 cells per well in 24 wells plates and incubated with oxLDL for 24. After the oxLDL stimulation, the cells were washed and incubated with cyclodextrin (carrier control) or 0.6 μM sitostanol for 4 hours. The BMDMs were subsequently washed and stimulated with 100 ng/ml LPS for 4 hours to generate an inflammatory response. Finally, BMDMs were lysed for RNA isolation. Gene expression analysis of inflammatory (TNFα, Arginase 1 and inducible NOS), anti-inflammatory (IL-10) and lysosomal cholesterol trafficking (NPC1 and NPC2) genes was performed. […]
(§2) Mouse TNFα secreted protein levels were determined by using the TNFα ELISA kit (mouse TNFα ELISA Ready-SET-Go!, eBioscience, San Diego, Calif.). […] Optical density (OD) was measured at 450 nm by using a spectrophotometer and TNFα concentrations were determined.

NPC1WT BMDMs [2] = assay: TNFα secretion (ELISA) by oxLDL/LPS-stimulated BMDMs, wild type; assay type: cell-based, mice; conditions: 0.6 μM sitostanol 4 hours after oxLDL, then LPS; vs carrier control; p=0.000; FIG. 1A
Method: as §1, §2

NPC1mut BMDMs [3] = assay: Gene expression of inflammatory mediators in oxLDL/LPS-stimulated BMDMs, mutant; assay type: cell-based, mice; conditions: FIG. 1B
Method: (§3) Bone-marrow derived cells (BMDCs) were isolated from tibea and femurs of NPC1 wild type (WT) and mutant mice on a C57BL/6 background. BMDCs were cultured for 8-9 days in RPMI-1640 (GIBCO Invitrogen, Breda, The Netherlands) with 10% heat-inactivated fetal calf serum (Bodinco B. V. Alkmaar, The Netherlands), penicillin (100 U/ml), streptomycin (100 μg/ml) and L-glutamine (2 mM) (all GIBCO invitrogen, Breda, The Netherlands) enriched with 20% L929-conditioned medium (LCM) to generate bone marrow-derived macrophages (BMDMs). After attachment, the BMDMs were seeded at 350,000 cells per well in 24 wells plates and incubated with oxLDL for 24. After the oxLDL stimulation, the cells were washed and incubated with cyclodextrin (carrier control) or 0.6 μM sitostanol for 4 hours. The BMDMs were subsequently washed and stimulated with 100 ng/ml LPS for 4 hours to generate an inflammatory response. Finally, BMDMs were lysed for RNA isolation. Gene expression analysis of inflammatory (TNFα, Arginase 1 and inducible NOS), anti-inflammatory (IL-10) and lysosomal cholesterol trafficking (NPC1 and NPC2) genes was performed. Furthermore, the supernatant was frozen until protein expression analysis of the pro-inflammatory TNFα was performed by Enzyme-Linked Immunosorbent Assay (ELISA).

[4] = humans, cited from earlier work
NPC1WT BMDMs [5] = assay: Gene expression of inflammatory mediators in oxLDL/LPS-stimulated BMDMs, wild type; assay type: cell-based, mice; conditions: 0.6 μM sitostanol; p=0.028; FIG. 1B
Method: as §3

[6] = in vivo; cited from earlier work

CC[C@H](CC[C@@H](C)[C@H]1CC[C@H]2[C@@H]3CC[C@H]4C[C@@H](O)CC[C@]4(C)[C@H]3CC[C@]12C)C(C)C [sitostanol]
TNFα secretion (NPC1mut BMDMs [1]): significantly reduced | TNFα secretion (NPC1WT BMDMs [2]): significantly reduced | gene expression of arginase 1 (M2 macrophage marker) (NPC1mut BMDMs [3]; 0.6 μM sitostanol vs carrier control, p=0.000): significantly increased | gene expression of Tnfα (NPC1mut BMDMs [3]; 0.6 μM sitostanol vs carrier control, p=0.136): trend towards reduced expression | iNOS/arginase 1 gene expression ratio (NPC1mut BMDMs [3]; 0.6 μM sitostanol vs control-treated NPC1mut BMDMs, p=0.074): trend towards a reduced | plasma concentration ([4]; 3 grams per day): 40.9 microgram per dl | plasma concentration ([4]; 9 grams per day): 57.2 microgram per dl | gene expression of IL-10 (NPC1WT BMDMs [5]): increased

cyclodextrin
ability to cross the blood brain barrier [6]: inability of cyclodextrin to cross the blood brain barrier
